{
  "source": "patent US4650801A",
  "about": "“Anti-cancer compositions for delivering 5-fluorouracil” (Taiho Pharmaceutical Company, Ltd., priority 1978, dated 1987)",
  "assay": "in vivo",
  "conditions": "mouse, in vivo, po",
  "experimental": "The anti-cancer compositions of this invention are tested in mice by the following methods to determine acute toxicity, anti-cancer effect and therapeutic index\nMale mice of ICR strain weighing 22±1 g are used, 5 mice in each group. A 5-fluorouracil (a) and uracil derivative (b) in the proportions listed in Tables 1-16 are suspended in a 5% solution of gum arabic to prepare a suspension, which is forcibly orally administered to each mouse through a tube at a dose of 1 ml/100 g. Over the following period of three weeks the mice are checked every day for poisoning, body weight and mortality. The LD50 is determined according to the up-and-down method 3 weeks after the administration.",
  "data": [
    {"smiles": "O=c1[nH]cc(F)c(=O)n1C1CCCO1", "note": "(centres unmarked) [Compound 6, 3-(2-Tetrahydrofuryl)-5-fluorouracil]", "values": [
      {"measurement": "LD50 at 504 h", "setting": "(b) = 1(2-Tetrahydrofuryl)uracil, (b)/(a) mol ratio 1", "result": 874, "unit": "mg/kg"},
      {"measurement": "LD50 at 504 h", "setting": "(b) = 1(2-Tetrahydrofuryl)uracil, (b)/(a) mol ratio 2", "result": 650, "unit": "mg/kg"},
      {"measurement": "LD50 at 504 h", "setting": "(b) = 1(2-Tetrahydrofuryl)uracil, (b)/(a) mol ratio 5", "result": 535, "unit": "mg/kg"},
      {"measurement": "LD50 at 504 h", "setting": "(b) = 1Acetyluracil, (b)/(a) mol ratio 1", "result": 702, "unit": "mg/kg"},
      {"measurement": "LD50 at 504 h", "setting": "(b) = 1Acetyluracil, (b)/(a) mol ratio 2", "result": 468, "unit": "mg/kg"},
      {"measurement": "LD50 at 504 h", "setting": "(b) = 1Acetyluracil, (b)/(a) mol ratio 5", "result": 246, "unit": "mg/kg"},
      {"measurement": "LD50 at 504 h", "setting": "(b) = 1Cyclohexylcarbamoyluracil, (b)/(a) mol ratio 0.5", "result": 833, "unit": "mg/kg"},
      {"measurement": "LD50 at 504 h", "setting": "(b) = 1Cyclohexylcarbamoyluracil, (b)/(a) mol ratio 5", "result": 576, "unit": "mg/kg"},
      {"measurement": "LD50 at 504 h", "setting": "(b) = 1n-Hexylcarbamoyluracil, (b)/(a) mol ratio 1", "result": 928, "unit": "mg/kg"},
      {"measurement": "LD50 at 504 h", "setting": "(b) = 1n-Hexylcarbamoyluracil, (b)/(a) mol ratio 2", "result": 844, "unit": "mg/kg"},
      {"measurement": "LD50 at 504 h", "setting": "(b) = 1n-Hexylcarbamoyluracil, (b)/(a) mol ratio 10", "result": 469, "unit": "mg/kg"},
      {"measurement": "LD50 at 504 h", "setting": "(b) = 2'-Deoxycytidine, (b)/(a) mol ratio 1", "result": 928, "unit": "mg/kg"},
      {"measurement": "LD50 at 504 h", "setting": "(b) = 2'-Deoxycytidine, (b)/(a) mol ratio 2", "result": 843, "unit": "mg/kg"},
      {"measurement": "LD50 at 504 h", "setting": "(b) = 2'-Deoxyuridine, (b)/(a) mol ratio 1", "result": 845, "unit": "mg/kg"},
      {"measurement": "LD50 at 504 h", "setting": "(b) = 2'-Deoxyuridine, (b)/(a) mol ratio 2", "result": 790, "unit": "mg/kg"},
      {"measurement": "LD50 at 504 h", "setting": "(b) = 2'-Deoxyuridine, (b)/(a) mol ratio 20", "result": 525, "unit": "mg/kg"},
      {"measurement": "LD50 at 504 h", "setting": "(b) = 3Benzoyluracil, (b)/(a) mol ratio 1", "result": 768, "unit": "mg/kg"},
      {"measurement": "LD50 at 504 h", "setting": "(b) = 3Benzoyluracil, (b)/(a) mol ratio 2", "result": 663, "unit": "mg/kg"},
      {"measurement": "LD50 at 504 h", "setting": "(b) = 3Benzoyluracil, (b)/(a) mol ratio 10", "result": 448, "unit": "mg/kg"},
      {"measurement": "LD50 at 504 h", "setting": "(b) = 5Bromo-2'-deoxyuridine, (b)/(a) mol ratio 0.5", "result": 640, "unit": "mg/kg"},
      {"measurement": "LD50 at 504 h", "setting": "(b) = 5Bromo-2'-deoxyuridine, (b)/(a) mol ratio 2", "result": 478, "unit": "mg/kg"},
      {"measurement": "LD50 at 504 h", "setting": "(b) = 5Bromo-2'-deoxyuridine, (b)/(a) mol ratio 10", "result": 308, "unit": "mg/kg"},
      {"measurement": "LD50 at 504 h", "setting": "(b) = 5Bromouracil, (b)/(a) mol ratio 0.5", "result": 745, "unit": "mg/kg"},
      {"measurement": "LD50 at 504 h", "setting": "(b) = 5Bromouracil, (b)/(a) mol ratio 2", "result": 575, "unit": "mg/kg"},
      {"measurement": "LD50 at 504 h", "setting": "(b) = 5Bromouracil, (b)/(a) mol ratio 10", "result": 412, "unit": "mg/kg"},
      {"measurement": "LD50 at 504 h", "setting": "(b) = 5Iodouracil, (b)/(a) mol ratio 1", "result": 467, "unit": "mg/kg"},
      {"measurement": "LD50 at 504 h", "setting": "(b) = 5Iodouracil, (b)/(a) mol ratio 5", "result": 194, "unit": "mg/kg"},
      {"measurement": "LD50 at 504 h", "setting": "(b) = Cytidine, (b)/(a) mol ratio 2", "result": 928, "unit": "mg/kg"},
      {"measurement": "LD50 at 504 h", "setting": "(b) = Cytidine, (b)/(a) mol ratio 10", "result": 773, "unit": "mg/kg"},
      {"measurement": "LD50 at 504 h", "setting": "(b) = Cytosine, (b)/(a) mol ratio 10", "result": 639, "unit": "mg/kg"},
      {"measurement": "LD50 at 504 h", "setting": "(b) = Orotic acid, (b)/(a) mol ratio 2", "result": 969, "unit": "mg/kg"},
      {"measurement": "LD50 at 504 h", "setting": "(b) = Orotic acid, (b)/(a) mol ratio 20", "result": 806, "unit": "mg/kg"},
      {"measurement": "LD50 at 504 h", "setting": "(b) = Thymidine, (b)/(a) mol ratio 0.5", "result": 963, "unit": "mg/kg"},
      {"measurement": "LD50 at 504 h", "setting": "(b) = Thymidine, (b)/(a) mol ratio 2", "result": 886, "unit": "mg/kg"},
      {"measurement": "LD50 at 504 h", "setting": "(b) = Thymidine, (b)/(a) mol ratio 10", "result": 639, "unit": "mg/kg"},
      {"measurement": "LD50 at 504 h", "setting": "(b) = Thymine, (b)/(a) mol ratio 0.5", "result": 830, "unit": "mg/kg"},
      {"measurement": "LD50 at 504 h", "setting": "(b) = Thymine, (b)/(a) mol ratio 2", "result": 537, "unit": "mg/kg"},
      {"measurement": "LD50 at 504 h", "setting": "(b) = Thymine, (b)/(a) mol ratio 10", "result": 324, "unit": "mg/kg"},
      {"measurement": "LD50 at 504 h", "setting": "(b) = Uridine, (b)/(a) mol ratio 1", "result": 945, "unit": "mg/kg"},
      {"measurement": "LD50 at 504 h", "setting": "(b) = Uridine, (b)/(a) mol ratio 2", "result": 815, "unit": "mg/kg"},
      {"measurement": "LD50 at 504 h", "setting": "(b) = Uridine, (b)/(a) mol ratio 20", "result": 597, "unit": "mg/kg"}
    ]}
  ]
}
